The NIST ThermoML archive (doi:10.1016/j.fluid.2018.04.024)

Conditions: Liquid, Vibrating tube method

CCCC(=O)OC [methyl butanoate]
mass density [kg/m3]
Conditions	293.15 K	303.15 K	313.15 K	323.15 K	333.15 K	343.15 K	353.15 K	363.15 K
100 kPa	898.42	886.68	875.83	864.35	853.11	841.05	829.58	817.31
1000 kPa	898.68	887.75	876.3	865.42	854.08	842.4	830.8	818.87
3000 kPa	900.65	889.67	878.42	867.62	856.55	844.95	833.71	821.94
5000 kPa	902.15	891.54	880.45	869.76	858.82	847.57	836.31	824.91
10000 kPa	906.55	895.99	885.34	875.02	864.28	853.35	842.65	831.48
15000 kPa	910.63	900.35	889.92	879.93	869.44	858.9	848.71	838.19
20000 kPa	914.51	904.45	894.25	884.63	874.46	864.31	854.19	843.84
25000 kPa	918.33	908.4	898.53	888.92	879.2	869.1	859.51	849.26
30000 kPa	921.95	912.18	902.47	893.19	883.56	873.89	864.51	854.68
35000 kPa	925.38	915.86	906.46	897.21	887.79	878.44	869.35	859.76
40000 kPa	928.67	919.34	910.02	901.15	892.1	882.65	873.76	864.61
50000 kPa	935.38	926.18	917.24	908.62	899.8	890.89	882.24	873.56
60000 kPa	941.12	932.54	923.73	915.65	906.96	898.16	890.18	881.85

CCCCCCC(=O)OC [methyl heptanoate]
mass density [kg/m3]
Conditions	293.15 K	303.15 K	313.15 K	323.15 K	333.15 K	343.15 K	353.15 K	363.15 K
100 kPa	880.16	870.66	861.82	852.25	843.03	833.48	824.35	815.19
1000 kPa	880.29	871.46	862.16	853.12	843.81	834.64	825.27	816.36
3000 kPa	881.98	873.07	863.9	854.89	845.84	836.7	827.61	818.75
5000 kPa	883.19	874.66	865.62	856.64	847.68	838.79	829.66	821
10000 kPa	886.99	878.5	869.71	860.97	852.16	843.47	834.76	826.14
15000 kPa	890.49	882.18	873.55	865.07	856.43	848.02	839.63	831.57
20000 kPa	893.86	885.64	877.29	869.08	860.63	852.59	844.11	836.11
25000 kPa	897.18	889.08	880.89	872.69	864.64	856.55	848.48	840.56
30000 kPa	900.36	892.3	884.32	876.31	868.31	860.57	852.65	845.01
35000 kPa	903.34	895.46	887.66	879.74	871.91	864.43	856.65	849.23
40000 kPa	906.22	898.49	890.73	883.15	875.61	867.96	860.37	853.33
50000 kPa	912.14	904.43	896.98	889.53	882.2	875	867.57	860.82
60000 kPa	917.16	909.95	902.59	895.63	888.39	881.19	874.32	867.91
